From US20020103136A1, “Conjugates useful in the treatment of prostate cancer” (priority 1998, published 2002)
Like-named read-outs stand apart in the source and are kept apart here. Square brackets hold non-standard residues; d marks the D form. HCAP = (1S,2R)-(+)-2-hydroxy-3-cyclohexylisopropylamine linker; dAc‑VIN = 4-des-acetylvinblastine; Chg = N[C@H](C(=O)O)C1CCCCC1; Abu = CC[C@H](N)C(=O)O; VIN = not defined here

What was measured:
[1] = Lability in mouse serum (remark in Table 5); type: in vitro ADME; conditions: remark in the Table 5 cell
[2] = target: T1, enzymatically active free PSA (Homo sapiens, UniProt P07288); assay: Recognition/cleavage of oligopeptide-vinca drug conjugates by free PSA (HPLC); type: biochemical; conditions: pH 7.4; for Time to 50% Substrate Cleavage by York PSA: conjugate:PSA molar ratio 100 to 1, acetate salt unless otherwise indicated, n > 1 value is an average
T1 construct: 50% cleavage of the noted oligopeptide-cytotoxic agent conjugates with enzymatically active free PSA; purchased York
T1 sequence (P07288 25-261): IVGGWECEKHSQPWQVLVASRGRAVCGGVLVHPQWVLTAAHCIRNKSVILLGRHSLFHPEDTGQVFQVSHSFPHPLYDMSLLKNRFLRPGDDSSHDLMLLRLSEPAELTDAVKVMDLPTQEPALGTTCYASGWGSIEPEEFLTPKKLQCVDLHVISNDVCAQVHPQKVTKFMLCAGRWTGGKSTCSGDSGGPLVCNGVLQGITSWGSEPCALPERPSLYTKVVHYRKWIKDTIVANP
Protocol: The conjugates prepared as described in Example 3 were individually dissolved in PSA digestion buffer (50 mM tris(hydroxymethyl)-aminomethane pH7.4, 140 mM NaCl) and the solution added to PSA at a molar ration of 100 to 1. Alternatively, the PSA digestion buffer utilized is 50 mM tris(hydroxymethyl)-aminomethane pH7.4, 140 mM NaCl. The reaction is quenched after various reaction times by the addition of trifluoroacetic acid (TFA) to a final 1% (volume/volume). Alternatively the reaction is quenched with 10 mM ZnCl2. The quenched reaction was analyzed by HPLC on a reversed-phase C18 column using an aqueous 0.1% TFA/acetonitrile gradient. […] Unless otherwise indicated, the acetate salt of the conjugate was tested.

[3] = system: LNCap prostate tumor cells; assay: In vitro cytotoxicity, Alamar Blue assay, LNCaP cell kill in 72 hrs; type: cell-based; conditions: read-out: LNCaP Cell Kill in 72 HRS EC5O
Protocol: (§1) The cytotoxicities of the vinca alkaloid derivatives, prepared as described in Example 1, and the cleaveable oligopeptide-vinca drug conjugates, prepared as described in Examples 2 and 2A, against a line of cells which is known to be killed by unmodified vinca drug was assessed with an Alamar Blue assay. Specifically, cell cultures of LNCap prostate tumor cells, Colo320DM cells (also designated C320), T24 bladder carcinoma cells or T47D breast carcinoma cells in 96 well plates was diluted with medium containing various concentrations of a given conjugate (final plate well volume of 200 μl). The cells were incubated for 3 days at 37° C., 20 μl of Alamar Blue is added to the assay well. The cells were further incubated and the assay plates were read on a EL-310 ELISA reader at the dual wavelengths of 570 and 600 nm at 4 and 7 hours after addition of Alamar Blue. Relative percentage viability at the various concentration of conjugate tested was then calculated versus control (no cytotoxic agent or conjugate) cultures. Unless otherwise indicated, the TFA salt of the cytotoxic agent and the acetate salt of the conjugate were tested.

[4] = system: Colo320DM cells (also designated C320); assay: In vitro cytotoxicity, Alamar Blue assay, Colo320DM cells; type: cell-based; conditions: Table 5, value in parentheses, acetate salt unless otherwise indicated, read-out: Cell Kill in 72 HRS EC5O, Colo320DM
Protocol: as §1

[5] = system: T24 bladder carcinoma cells; assay: In vitro cytotoxicity, Alamar Blue assay, T24 cells; type: cell-based; conditions: read-out: Cell Kill in 72 HRS EC5O, T24
Protocol: as §1

[6] = Table 5, 3 days, acetate salt of conjugate unless otherwise indicated

Compound | Stability in mouse serum [1] | Time to 50% Substrate Cleavage by York PSA [2] | EC50 [3, 6] | EC50 [4] | Substrate cleavage by York PSA at 1 HOUR ([2]; 1 hour, conjugate:PSA 100 to 1) | EC50 ([3]; Homo sapiens, 72 h, Table 3, 3 days, TFA salt of cytotoxic agent unless otherwise indicated) | EC50 ([5]; Homo sapiens, T-24, 72 h, Table 3, value in parentheses) | EC50 ([5]; Table 5, value in parentheses)
CC[C@]1(O)CC2CN(CCc3c([nH]c4ccccc34)[C@@](C(=O)OC)(c3cc4c(cc3OC)N(C)C3C45CCN4CC=C[C@](CC)(C45)[C@@H](O)[C@]3(O)C(=O)N[C@H](COC(=O)[C@H](CO)NC(=O)[C@H](CCC(N)=O)NC(=O)[C@@H](NC(=O)[C@H](CO)NC(=O)[C@H](CO)NC(=O)[C@@H]3C[C@@H](O)CN3C(C)=O)C3CCCCC3)Cc3ccccc3)C2)C1 (some centres unmarked) | labile | 25 min | – | – | – | – | – | –
Ac-SSChgQ-SSP-(HCAP)-dAc-VIN (XSXQSSX; not fully specified; non-natural residues; cyclised or stapled) | – | 8 min | 2.6 µM | 6.3 µM | – | – | – | –
Ac-AbuSSChgQ-S-(HCAP)-VIN (Ac-[Abu]SS[Chg]QS-{HCAP-VIN}; reading uncertain) | – | – | 6.1 µM | 7.8 µM | 28% | – | – | –
Ac-4-trans-L-HypSSChgQSP(HCAP)-VIN (XSSXQSX; non-natural residues; cyclised or stapled) | – | 8 min | 5.5 µM | 15.6 µM | – | – | – | –
4-des-Acetylvinblastine-23-(N-Acetyl-4-trans-L-Hyp-Ser-Ser-Chg-Gln-Ser-HCAP) Amide Acetate Salt | – | 15 min | 3.4 µM | 4.6 µM | – | – | – | –
CC[C@]1(O)C[C@@H]2CN(CCc3c([nH]c4ccccc34)[C@@](C(=O)OC)(c3cc4c(cc3OC)N(C)[C@H]3[C@@](O)(C(=O)OC)[C@H](OC(C)=O)[C@]5(CC)C=CCN6CC[C@]43[C@@H]65)C2)C1 [VINBLASTINE, vinblastine] | – | – | – | – | – | 0.5 µM | < 0.08 µM | < 0.08 µM
Ac-SChgQ-SS(4-trans-L-Hyp)-(HCAP)-dAc-VIN (XXQSSX; non-natural residues; cyclised or stapled) | – | 7 min | 5.9 µM | 10.4 µM | – | – | – | –
Ac-SSChgQ-SP-(HCAP)-(dAc)-VIN (Ac-SS[Chg]QSP-{HCAP-dAc‑VIN}; not fully specified) | – | 30 min | 10.2 µM | 29.5 µM | – | – | – | –
Ac-SChgQ-SP-(HCAP)-(dAc)-VIN (Ac-S[Chg]QSP-{HCAP-dAc‑VIN}) | – | 13 min | 7.8 µM | 15.7 µM | – | – | – | –
